One assay has as its target T1, α-subunit of IR (Mus musculus, UniProt P15208).
T1 construct: endogenous in cells; host or cells: 3T3-L1 adipocytes (ATCC)
As to the kind of experiment: Cross-linking with Sulfo-SANPAH and Western blot with anti-IR α-subunit antibody. It counts as cell-based. The conditions noted are these: adipocytes, 200 μM, Sulfo-SANPAH, UV. As for the experimental part:
(A) α-PGG binds to IR as measured by a SPR (28). Increasing concentrations of α-PGG was injected into the system to interact with the pure IR attached to the gold surface of the biosensor chip. The binding, represented in arbitrary response units, was automatically plotted against α-PGG concentrations to generate the binding curve. (B) Insulin binding to IR in the absence or presence of α-PGG. Increasing amounts of ^125I-labeled insulin were added to WGA-coated wells containing pre-bound IR isolated from CHO-IR cells in the absence of α-PGG or in the presence of 30 μM or 50 μM of α-PGG. After overnight incubation, removal of excessive ligands, and washing, the bound radioactive insulin was measured. (C) Insulin displacement by α-PGG. Fixed amounts of radioactive insulin (1 nM) were added to each of the WGA-coated wells pre-bound with IR. Increasing amounts of α-PGG were added to the wells to displace the ^125I-labeled insulin. […]
For the cross-linking reaction, sulfosuccinimidyl-6-(4′-azido-2′-nitrophenylamino) hexanoate (Sulfo-SANPAH), a photoactive, non-cleavable cross-linker (31, 32) purchased from Pierce was used to cross link β-PGG to plasma membrane proteins that it interacts with. […] Cells were lysed and the total cell protein was isolated and separated on an 8% reducing SDS-PAGE, transferred to a nylon membrane, and analyzed with an anti-IR α-subunit antibody.

The subject of another assay is 3T3-L1 adipocytes. As to the kind of experiment: Glucose uptake assay in 3T3-L1 adipocytes. Type of assay: cell-based. As for the experimental part: Chemical synthesis yields both the α- and β-anomers of PGG. (B) Glucose transport stimulatory activity (13, 14) of PGG was assessed by incubating adipocytes in 6-well plates with insulin or PGG for 15 min followed by the addition of [^3H]-2-deoxy-D-glucose for 10 min before quantifying uptake (13, n=3, mean±SD, Two way-ANOVA, * P<0.05; ** P<0.01). α-PGG (●); β-PGG (□); insulin (∘). (C) Glucose transport induced by insulin in the presence of α-PGG. One […] of insulin was added to adipocytes in the presence of increasing amounts of α-PGG. After induction, radioactive glucose was added, and the glucose taken up by the cells was counted.
Reagents, compound synthesis, and glucose uptake assay. Bovine insulin was purchased from Sigma. PGG, in an approximate 1:1 mixture of α- and β-PGG, was synthesized from glucose in the non-radioactive form as described (22). The identity of the compounds was confirmed by MS and NMR. The compounds were dissolved in double distilled water (ddH2O), filter sterilized, and stored as a 10 mM aqueous stock solution at −20° C. The stock solutions were diluted to final concentrations with sterile ddH2O. Glucose uptake assays in 3T3-L1 adipocytes induced by PGG were performed as described (13).

Another assay addresses insulin (Bos taurus, UniProt P01317). As to the kind of experiment: Binding of α-PGG to insulin.
The subject of another assay is Akt. Put plainly: Akt phosphorylation, Western blot. It counts as cell-based. The settings on record: 3T3-L1 adipocytes, 20 or 40 μM, 15 min. The procedure: (§1) (A) Glucose transport was measured by determining [^3H]-2-deoxyglucose uptake stimulated by either insulin or α-PGG in 3T3-L1 cells in the presence or absence of HNMPA-(AM)3, an inhibitor of IR tyrosine kinase activity (24); wortmannin, an inhibitor of PI 3-kinase (25), or cytochalasin B, an inhibitor of GLUT4 (26), (n=4, mean±SD). (B) Cells were induced by 20 or 40 μM α-PGG or 100 nM insulin for 15 min. Cell lysates were separated by PAGE and analyzed for phosphorylation of IR (in CHO-IR cells) or Akt (in adipocytes) using antibodies specific to the target proteins. (C) Cells were treated with α-PGG and insulin in a fashion similar to (B) and assayed for their respective PI-3 kinase activity with a radioactive TLC method (27). (D) In similar experiments, intact cells were analyzed by confocal microscopy for translocation of GLUT4 using anti-GLUT4 antibodies.
(§2) Protein phosphorylation/activation and GLUT4 translocation. To investigate signal transduction induced by α-PGG, proteins from 3T3-L1 adipocytes or CHO-IR cells (23), which were treated with α-PGG or insulin for 15 min, were isolated, separated by PAGE, blotted on nylon membranes, and analyzed by Western blotting with antibodies against either IR or Akt. […]
A general note: In western blotting, separated proteins are transferred to a membrane and probed.

Another assay has as its system GLUT4. Put plainly: GLUT4 translocation, confocal microscopy. It counts as cell-based. The settings on record: adipocytes, 37° C., 15 min. As for the experimental part:
as §1, §2

The text below walks through data of US7888042B2, “Methods for identifying insulin mimetics” (Ohio University, priority 2005, dated 2011).

SMILES strings stand for the structures. pEC50: −log10 of the molar value.

Sequence of insulin (P01317 25-54 limits assumed): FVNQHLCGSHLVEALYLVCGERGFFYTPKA
T1 sequence (P15208 28-748 limits assumed): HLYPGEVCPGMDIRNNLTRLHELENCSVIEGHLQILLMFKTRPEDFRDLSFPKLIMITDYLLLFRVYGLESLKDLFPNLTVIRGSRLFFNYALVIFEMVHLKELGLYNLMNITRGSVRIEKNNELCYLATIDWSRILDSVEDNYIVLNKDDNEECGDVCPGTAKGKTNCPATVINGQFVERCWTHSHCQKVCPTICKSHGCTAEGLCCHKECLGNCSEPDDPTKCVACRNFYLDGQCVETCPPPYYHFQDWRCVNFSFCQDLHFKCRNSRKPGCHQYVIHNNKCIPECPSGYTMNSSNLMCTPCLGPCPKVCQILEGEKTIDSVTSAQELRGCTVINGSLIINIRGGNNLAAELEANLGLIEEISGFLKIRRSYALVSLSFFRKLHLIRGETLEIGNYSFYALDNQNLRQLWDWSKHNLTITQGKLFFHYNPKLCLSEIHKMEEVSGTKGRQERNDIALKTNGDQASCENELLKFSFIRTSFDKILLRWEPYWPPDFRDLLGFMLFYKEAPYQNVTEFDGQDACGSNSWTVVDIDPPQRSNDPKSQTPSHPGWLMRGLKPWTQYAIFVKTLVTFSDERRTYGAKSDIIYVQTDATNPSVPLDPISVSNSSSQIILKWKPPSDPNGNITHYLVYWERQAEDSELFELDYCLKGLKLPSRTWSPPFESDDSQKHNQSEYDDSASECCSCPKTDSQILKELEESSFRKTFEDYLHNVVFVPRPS
T1 sequence (P15208 753-1372 partner limits assumed): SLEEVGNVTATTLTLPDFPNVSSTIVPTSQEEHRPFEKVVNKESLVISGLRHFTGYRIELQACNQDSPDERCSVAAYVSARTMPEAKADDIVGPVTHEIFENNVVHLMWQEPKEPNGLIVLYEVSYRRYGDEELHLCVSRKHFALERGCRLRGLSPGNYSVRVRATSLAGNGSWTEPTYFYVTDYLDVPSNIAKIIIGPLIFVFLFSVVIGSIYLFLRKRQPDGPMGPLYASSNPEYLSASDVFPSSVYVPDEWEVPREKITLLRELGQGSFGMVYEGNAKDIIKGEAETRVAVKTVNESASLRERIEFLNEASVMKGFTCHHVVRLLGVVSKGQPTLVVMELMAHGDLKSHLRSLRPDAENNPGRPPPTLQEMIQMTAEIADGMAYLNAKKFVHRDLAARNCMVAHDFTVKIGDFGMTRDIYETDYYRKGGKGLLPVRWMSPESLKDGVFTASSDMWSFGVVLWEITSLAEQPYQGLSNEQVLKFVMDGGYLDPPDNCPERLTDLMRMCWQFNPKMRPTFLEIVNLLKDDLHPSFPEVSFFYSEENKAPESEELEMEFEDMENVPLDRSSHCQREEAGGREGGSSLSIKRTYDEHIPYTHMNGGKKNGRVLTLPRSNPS

With `O=C(OC[C@H]1O[C@H](OC(=O)c2cc(O)c(O)c(O)c2)[C@H](OC(=O)c2cc(O)c(O)c(O)c2)[C@@H](OC(=O)c2cc(O)c(O)c(O)c2)[C@@H]1OC(=O)c1cc(O)c(O)c(O)c1)c1cc(O)c(O)c(O)c1` [α-PGG, alpha 1,2,3,4,6-penta-O-galloyl-D-Glucopyranose], at α-subunit of IR, the “gel migration of IR α-subunit after cross-linking” value is recorded as “Gel retardation of α-subunit of IR”. The “induction of glucose transport” value with 3T3-L1 adipocytes (3T3-L1 adipocytes, [3H]-2-deoxy-D-glucose uptake, 15 min incubation) is recorded as “induced glucose transport in adipocytes in a dose-dependent manner”. The “glucose transport activity, more active than β-PGG” value in the assay with 3T3-L1 adipocytes (15-30 μM concentration range, P<0.05 at 15 μM, P<0.01 at 30 μM) was 10-20%. Besides, the pEC50 (in general, −log10 of the EC50, conventionally taken in molar units) in the assay with 3T3-L1 adipocytes (Mus musculus, 3T3-L1, estimated, printed 13 μM±2 μM, read-out: EC50 for glucose transport activity) was 4.89. The “glucose transport induced by insulin on addition of α-PGG” value with 3T3-L1 adipocytes (insulin plus increasing amounts of α-PGG) was “reduced the glucose transport activity induced by insulin towards that of α-PGG”. Also, on insulin, the binding to insulin result was “did not bind to insulin”. The Akt phosphorylation entry with Akt was “phosphorylated in 3T3-L1 adipocytes in a dose-dependent fashion”. For the same molecule, the GLUT4 translocation result in the assay on GLUT4 is recorded as “translocated to the plasma membrane”.
